One assay has as its system CHP-134 cells. As to the kind of experiment: CHP134 CellTiter-Glo (CTG) Assay. In kind it is cell-based. Conditions: Homo sapiens, 5 days, viable cells by CellTiter-Glo. Here is the method:
Cells were seeded (200 cells/well) in 384-well plates for 16 hours. On day two, nine serial 1:3 compound dilutions were made in DMSO in a 96-well plate. The compounds were then further diluted into growth media using a BRAVO robot (Agilent, Santa Clara, CA). The diluted compounds were then added to quadruplicate wells in the 384-well cell plate and incubated at 37° C. and 5% CO2. After 5 days, relative numbers of viable cells were measured by luminescence using CellTiter-Glo® (Promega) according to the manufacturer’s instructions and read on a SPARK Multimode Microplate Reader (Tecan, Mannedorf Switzerland). The IC50 calculations for the values reported in Table 2 were carried out using Prism 6.0 software (GraphPad, San Diego).
(ATP-based viability assays read luminescence as a measure of living cells.)

The target in a further assay is human recombinant PLK4 (Homo sapiens (Human), UniProt O00444). As to the kind of experiment: PLK4 Biochemical Assay (ADP-Glo). Conditions: 0.5 nM PLK4, 8.0 µM ATP, 4.7 µM MBP, 6 hours at RT. Summed up:
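Recombinant human PLK4 (added at 1.0 nM) was preincubated 15 min at RT with compound in 50 mM HEPES pH 7.5, 10 mM MgCl2, 1 mM EGTA, 1 mM DTT, 0.01% Brij-35, 0.01% BSA. ADP formed was detected by ADP-Glo luminescence (40 min ATP depletion, 30 min detection). IC50 came from a four-parameter fit.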
Background: ADP-Glo first removes unused ATP, then detects ADP through luciferase.

The target of assay [1] is human recombinant Aurora B (Homo sapiens (Human), UniProt Q96GD4). The experiment in a line: Aurora B Kinase Biochemical Assay (ADP-Glo). Conditions: ratio of Aurora B IC50 to PLK4 IC50 (selectivity). Summed up:
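Recombinant human Aurora B (20 nM in pH 7.5 HEPES buffer with MgCl2, EGTA, DTT, Brij-35, BSA) preincubated with compound 15 min at RT. ADP formed quantified by ADP-Glo luminescence after ATP depletion (40 min) and detection (30 min). IC50 from four-parameter non-linear regression.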

The target in assay [2] is human recombinant Aurora A (Homo sapiens (Human), UniProt O14965). As to the kind of experiment: Aurora A Kinase Biochemical Assay (ADP-Glo). Particulars: ratio of Aurora A IC50 to PLK4 IC50 (selectivity).
Chain of human recombinant Aurora A (O14965 whole entry): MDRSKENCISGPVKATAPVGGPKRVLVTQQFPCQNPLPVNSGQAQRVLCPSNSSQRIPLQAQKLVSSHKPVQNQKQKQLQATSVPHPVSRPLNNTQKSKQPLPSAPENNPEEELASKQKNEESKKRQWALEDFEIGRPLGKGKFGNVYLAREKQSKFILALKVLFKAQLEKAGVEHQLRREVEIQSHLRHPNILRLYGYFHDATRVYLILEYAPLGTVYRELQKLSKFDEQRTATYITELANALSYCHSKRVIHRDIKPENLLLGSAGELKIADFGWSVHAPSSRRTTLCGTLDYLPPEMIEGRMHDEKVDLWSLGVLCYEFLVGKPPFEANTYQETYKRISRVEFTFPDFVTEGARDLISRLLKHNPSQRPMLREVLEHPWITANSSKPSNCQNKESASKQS

Chain of human recombinant PLK4 (O00444 whole entry): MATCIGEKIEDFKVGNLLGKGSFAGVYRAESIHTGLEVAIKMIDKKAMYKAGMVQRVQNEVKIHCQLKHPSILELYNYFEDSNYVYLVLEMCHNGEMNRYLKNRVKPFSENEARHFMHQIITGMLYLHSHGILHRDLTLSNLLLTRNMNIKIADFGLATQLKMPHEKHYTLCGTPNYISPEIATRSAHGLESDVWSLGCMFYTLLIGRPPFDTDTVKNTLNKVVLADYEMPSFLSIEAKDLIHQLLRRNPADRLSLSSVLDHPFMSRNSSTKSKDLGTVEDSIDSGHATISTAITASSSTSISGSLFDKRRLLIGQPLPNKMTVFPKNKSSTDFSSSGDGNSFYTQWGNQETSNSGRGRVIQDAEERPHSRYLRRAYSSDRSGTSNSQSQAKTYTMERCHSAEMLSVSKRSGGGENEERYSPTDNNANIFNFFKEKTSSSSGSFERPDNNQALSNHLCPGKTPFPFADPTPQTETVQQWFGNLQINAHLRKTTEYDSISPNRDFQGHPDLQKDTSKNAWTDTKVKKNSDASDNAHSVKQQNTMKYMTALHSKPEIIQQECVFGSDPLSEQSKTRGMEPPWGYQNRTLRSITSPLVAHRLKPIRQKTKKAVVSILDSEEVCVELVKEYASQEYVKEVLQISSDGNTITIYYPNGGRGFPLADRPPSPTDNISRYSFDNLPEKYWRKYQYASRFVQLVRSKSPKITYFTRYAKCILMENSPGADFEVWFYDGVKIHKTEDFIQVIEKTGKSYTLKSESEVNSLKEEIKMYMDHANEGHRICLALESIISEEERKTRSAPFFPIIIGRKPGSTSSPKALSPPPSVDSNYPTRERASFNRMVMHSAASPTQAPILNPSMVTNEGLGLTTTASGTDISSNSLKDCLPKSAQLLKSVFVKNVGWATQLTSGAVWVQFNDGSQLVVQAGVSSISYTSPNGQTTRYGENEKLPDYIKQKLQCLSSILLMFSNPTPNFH
Chain of human recombinant Aurora B (Q96GD4 whole entry): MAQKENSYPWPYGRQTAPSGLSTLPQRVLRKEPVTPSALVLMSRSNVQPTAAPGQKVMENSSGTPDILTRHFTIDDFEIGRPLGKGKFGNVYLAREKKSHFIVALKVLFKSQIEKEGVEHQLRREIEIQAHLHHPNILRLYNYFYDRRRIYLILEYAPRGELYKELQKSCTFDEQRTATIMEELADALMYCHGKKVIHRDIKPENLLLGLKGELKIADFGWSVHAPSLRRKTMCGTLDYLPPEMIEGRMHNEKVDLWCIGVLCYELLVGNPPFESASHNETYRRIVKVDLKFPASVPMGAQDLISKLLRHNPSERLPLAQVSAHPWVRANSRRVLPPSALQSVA

Broadly, the IC50 is the concentration needed to halve the response being measured. As for `COc1ccc2c(c1)[C@]1(C[C@H]1c1ccc3c(Nc4ncnc(N5CC(O)C5)c4Cl)n[nH]c3c1)C(=O)N2` [Example 46, (1R,2S)-2-(3-{[5-chloro-6-(3-hydroxyazetidin-1-yl)pyrimidin4-yl]amino}-1H-indazol-6-yl)-5′-methoxyspiro[cyclopropane-1,3′-indol]-2′(1′H)-one], the 50% inhibitory concentration (IC50) in the assay on CHP-134 cells (CHP-134, 120 h) turned out to be 1.43 µM; on human recombinant PLK4 it was 0.00252 µM. Further, the “[Aurora B IC50 (nM)]/[PLK4 IC50 (nM)]” value in assay [1] is reported as 135.8985. Moreover, in assay [2], the “[Aurora A IC50 (nM)]/[PLK4 IC50 (nM)]” value worked out at 2542.642.
For `COc1ccc2c(c1)[C@]1(C[C@H]1c1ccc3c(Nc4ncnc(N5CC(OC)C5)c4Cl)n[nH]c3c1)C(=O)N2` [Example 47, (1R,2S)-2-(3-{[5-chloro-6-(3-methoxyazetidin-1-yl)pyrimidin-4-yl]amino}-1H-indazol-6-yl)-5′-methoxyspiro[cyclopropane-1,3′-indol]-2′(1′H)-one] the same measures were 0.611 µM, 0.0013 µM, 104.3011 and 1879.416.
For `COc1ccc2c(c1)[C@]1(C[C@H]1c1ccc3c(Nc4nc(Cl)nc(N5CCOCC5)c4OC)n[nH]c3c1)C(=O)N2` [Example 48, (1R,2S)-2-(3-{[2-chloro-5-methoxy-6-(morpholin-4-yl)pyrimidin-4-yl]amino}-1H-indazol-6-yl)-5′-metboiyspiro[cyclopropane-1,3′-indol]-2′(1′H)-one] the same measures were 0.742 µM, 0.00328 µM, 292.3406 and 1948.123.
For `COc1ccc2c(c1)[C@]1(C[C@H]1c1ccc3c(Nc4nc(C5CC5)nc(N5CCOCC5)c4OC)n[nH]c3c1)C(=O)N2` [Example 51, (1R,2S)-2-(3-1[2-cyclopropyl-5-methoxy-6-(morpholin-4-yl)pyrimidin-4-yl]aminol-1H-indezol-6-yl)-5′-methoxyapiro[cyclopropane-1,3′-indol]-2′(1′H)-one] the same measures were 0.143 µM, 0.00123 µM, 1241.883 and 3031.656.
Regarding `COc1ccc2c(c1)[C@]1(C[C@H]1c1ccc3c(Nc4ncnc(N5C[C@@H](C)O[C@@H](C)C5)c4OC)n[nH]c3c1)C(=O)N2` [Example 52, (lR,2S)-2-[3-({6-[(2R,6S)-2,6-dimethylmorpholin-4-yl]-5-methoxypyrimidin-4-yl}amino)-1H-indazol-6-yl]-5′-methoxyspiro[cydopropane-1,3′-indol]-2′(1′H)-one], the IC50 in the assay on CHP-134 cells (CHP-134, 120 h) was 2.26 µM; at human recombinant PLK4, 0.00701 µM. For the same compound, the “[Aurora B IC50 (nM)]/[PLK4 IC50 (nM)]” value in assay [1] came out at 55.0706. In assay [2], the “[Aurora A IC50 (nM)]/[PLK4 IC50 (nM)]” value is 2009.699.
For `COc1ccc2c(c1)[C@]1(C[C@H]1c1ccc3c(Nc4ncnc(N5CCS(=O)(=O)CC5)c4OC)n[nH]c3c1)C(=O)N2` [Example 54, (1R,2S)-2-(3-((6-(1,1-dioxidothiomorpholino)-5-methoxypyrimidin-4-yl)amino)-1H-indazol-6-yl)-5′-methoxyspiro[cydopropane-1,3′-indolin]-2′-one] the same measures were 10 µM, 0.0332 µM, 117.2684 and 1504.212.
For `COc1ccc2c(c1)[C@]1(C[C@H]1c1ccc3c(Nc4nc(CCO)cnc4OC)n[nH]c3c1)C(=O)N2` [Example 56, (1R,2S)-2-(3-{[6-(2-hydroxyethyl)-3-methoxypyrazin-2-yl]amino}-1H-indazol-6-yl)-5′-methoxyspiro[cyclopropane-1,3′-indol]-2′(1′H)-one] the same measures were 2.68 µM, 0.00384 µM, 423.7686 and 1047.694.
Regarding `COc1ccc2c(c1)[C@]1(C[C@H]1c1ccc3c(Nc4nc(C)nc(N5CCS(=O)(=O)CC5)c4OC)n[nH]c3c1)C(=O)N2` [Example 57, 4-[5-methoxy-6-({6-[(1R,2S)-5′-methoxy-2′-oxo-1′,2′-dihydrospiro[cyclopropane-1,3′-indol]-2-yl]-1H-indazol-3-yl}amino)-2-methylpyrimidin-4-yl]-1λ6-thiomorpholine-1,1-dione], the IC50 amounted to 3.96 µM with CHP-134 cells (CHP-134, 120 h) and 0.00508 µM at human recombinant PLK4. Besides, the “[Aurora B IC50 (nM)]/[PLK4 IC50 (nM)]” value in assay [1] was 831.2992. In addition, the “[Aurora A IC50 (nM)]/[PLK4 IC50 (nM)]” value in assay [2] is reported as 3527.559.
For `COc1ccc2c(c1)[C@]1(C[C@H]1c1ccc3c(Nc4nc(C)nc(N5CCS(=O)(=O)CC5)c4Cl)n[nH]c3c1)C(=O)N2` [Example 58, 4-[5-chloro-6-({6-[(1R,2S)-5′-methoxy-2′-oxo-1,2′-dihydrospiro[cyclopropane-1,3′-indol]-2-yl]-1H-indazol-3-yl}amino)-2-methylpyrimidin-4-yl]-1λ6-thiomorpholine-1,1-dione] the same measures were 0.157 µM, 0.00232 µM, 140.6736 and 1393.782.
For `COc1ccc2c(c1)[C@]1(C[C@H]1c1ccc3c(Nc4nc(C#N)nc(N5CCOCC5)c4OC)n[nH]c3c1)C(=O)N2` [Example 61, 5-methoxy-4-({6-[(1R,2S)-5′-methoxy-2′-oxo-1’,2′-dihydrospiro[cyclopropane-1,3′-indol]-2-yl]-1H-indazol-3-yl}amino)-6-(morpholin-4-yl)pyrimidme-2-carbonitrile], the IC50 in the assay on CHP-134 cells (120 h) stood at 2.39 µM; on human recombinant PLK4 it was 0.00975 µM. Further, the “[Aurora B IC50 (nM)]/[PLK4 IC50 (nM)]” value in assay [1] is 955.0539. Also, in assay [2], the “[Aurora A IC50 (nM)]/[PLK4 IC50 (nM)]” value came to 588.8148.
Regarding `COc1ccc2c(c1)[C@]1(C[C@H]1c1ccc3c(Nc4nc(C#N)nc(N5CCS(=O)(=O)CC5)c4OC)n[nH]c3c1)C(=O)N2` [Example 62, 4-(l,l-dioxidothiomorpholino)-5-methoxy-6-((6-((lR,2S)-5′-methoxy-2′-oxospiro[cyclopropane-1,3′-indolin]-2-yl)-1H-indazol-3-yl)amino)pyrimidine-2-carbonitrile], the 50% inhibitory concentration (IC50) with CHP-134 cells (CHP-134, 120 h) came to 10 µM; at human recombinant PLK4, 0.0169 µM. In addition, the “[Aurora B IC50 (nM)]/[PLK4 IC50 (nM)]” value in assay [1] is on record as 946.7771. The “[Aurora A IC50 (nM)]/[PLK4 IC50 (nM)]” value in assay [2] was found to be 540.9225.
Take `COc1ccc2c(c1)[C@]1(C[C@H]1c1ccc3c(Nc4nc(C)nc(N5C[C@@H](C)O[C@@H](C)C5)c4OC)n[nH]c3c1)C(=O)N2` [Example 67, (1R,2S)-2-[3-({6-[(2R,6S)-2,6-dimethylmorpholin-4-yl]-5-methoxy-2-methylpyrimidin-4-yl}amino)-1H-indazol-6-yl]-5′-methoxyspiro[cyclopropane-1,3′-indol]-2′(1′H)-one]: the half-maximal inhibitory concentration (IC50) in the assay on CHP-134 cells (CHP-134, 120 h) was determined as 4.39 µM; at human recombinant PLK4 it was 0.00134 µM. In addition, the “[Aurora B IC50 (nM)]/[PLK4 IC50 (nM)]” value in assay [1] amounted to 499.9255. In assay [2], the “[Aurora A IC50 (nM)]/[PLK4 IC50 (nM)]” value is reported as 4976.155.
Taken in the same sequence, the figures for `COc1ccc2c(c1)[C@]1(C[C@H]1c1ccc3c(Nc4nc(CCO)nc(N5CCOCC5)c4OC)n[nH]c3c1)C(=O)N2` [Example 68, (1R,2S)-2-(3-{[2-(2-hydroxyethyl)-5-methoxy-6-(morpholin-4-yl)pyrimidin-4-yl]amino}-1H-indazol-6-yl)-5′-methoxyspiro[cyclopropane-1,3′-indol]-2′(1′H)-one] were 2.48 µM, 0.00738 µM, 1347.967 and 4761.518.

The record behind these values is patent publication US20230365537A1, “POLO LIKE KINASE 4 INHIBITORS” (ORIC Pharmaceuticals, Inc., priority 2021, published 2023).
